According to patent US9725445B2, “Cycloalkyl nitrile pyrazolo pyridones as Janus kinase inhibitors” (Merck Sharp & Dohme Corp., priority 2013, dated 2017):

Tests used:
[1] = biological target: JAK2 (Homo sapiens (Human), UniProt O60674); experiment: Jak biochemical HTRF assay, JAK2; settings: HTRF biochemical assay, recombinant GST-tagged catalytic domain; read-out: JAK2 IC50
[2] = biological target: JAK1 (Homo sapiens (Human), UniProt P23458); experiment: Jak biochemical HTRF assay, JAK1; settings: HTRF biochemical assay, recombinant GST-tagged catalytic domain; read-out: JAK1 IC50
JAK1, sequence (P23458 875-1153): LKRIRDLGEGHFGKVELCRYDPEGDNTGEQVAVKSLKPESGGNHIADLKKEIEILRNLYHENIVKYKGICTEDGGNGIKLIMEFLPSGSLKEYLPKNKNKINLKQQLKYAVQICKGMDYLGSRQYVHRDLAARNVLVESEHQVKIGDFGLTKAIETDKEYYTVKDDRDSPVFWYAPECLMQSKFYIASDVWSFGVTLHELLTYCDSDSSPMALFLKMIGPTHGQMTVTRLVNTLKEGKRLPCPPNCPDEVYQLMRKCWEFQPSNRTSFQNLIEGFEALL

JAK2, sequence (O60674 849-1124): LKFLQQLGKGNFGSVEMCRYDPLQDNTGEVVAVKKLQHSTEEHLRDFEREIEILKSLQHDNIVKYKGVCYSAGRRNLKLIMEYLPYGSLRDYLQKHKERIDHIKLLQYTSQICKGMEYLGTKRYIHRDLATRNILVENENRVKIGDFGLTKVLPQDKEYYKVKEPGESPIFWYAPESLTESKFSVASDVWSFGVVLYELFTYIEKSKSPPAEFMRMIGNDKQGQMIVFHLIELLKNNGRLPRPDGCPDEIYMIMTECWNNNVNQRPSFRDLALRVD

SMILES | IC50 [1] | IC50 [2]
CN(C)[C@@H]1CC[C@H](n2nc(Nc3ccc(Cl)c(F)c3)c3c(=O)[nH]ccc32)[C@@H](C#N)C1 [Example 5-1, (1S,2S,5R)-2-(3-((4-Chloro-3-fluorophenyl)amino)-4-oxo-4,5-dihydro-1H-pyrazolo[4,3-c]pyridin-1-yl)-5-(dimethylamino)cyclohexanecarbonitrile] | 19 nM | 1.5 nM
N#C[C@H]1CCCC[C@@H]1n1nc(Nc2ccc(C3CCNCC3)cc2)c2c(=O)[nH]ccc21 [Example 15-25, (1S,2S)-2-{4-oxo-3-[(4-piperidin-4-ylphenyl)amino]-4,5-dihydro-1H-pyrazolo[4,3-c]pyridin-1-yl}cyclohexanecarbonitrile] | 0.98 nM | 0.48 nM
CC1(c2ccc(Nc3nn([C@H]4CCCC[C@@H]4C#N)c4cc[nH]c(=O)c34)cc2)COC1 [Example 15-13, (1S,2S)-2-(3-{[4-(3-methyloxetan-3-yl)phenyl]amino}-4-oxo-4,5-dihydro-1H-pyrazolo[4,3-c]pyridin-1-yl)cyclohexanecarbonitrile] | 0.72 nM | 0.22 nM
N#C[C@H]1CCCC[C@@H]1n1nc(Nc2ccc3c(c2)CN(C(=O)c2cnc(N4CCCCC4)cn2)C3)c2c(=O)[nH]ccc21 [Example 3-158, (1S,2S)-2-[4-oxo-3-({2-[(5-piperidin-1-ylpyrazin-2-yl)carbonyl]-2,3-dihydro-1H-isoindol-5-yl}amino)-4,5-dihydro-1H-pyrazolo[4,3-c]pyridin-1-yl]cyclohexanecarbonitrile] | 1.5 nM | 0.98 nM
N#C[C@@H]1CCC[C@H]1n1nc(Nc2ccnc(F)c2)c2c(=O)[nH]ccc21 [Example 3-93, (1R,2R)-2-{3-[(2-fluoropyridin-4-yl)amino]-4-oxo-4,5-dihydro-1H-pyrazolo[4,3-c]pyridin-1-yl}cyclopentanecarbonitrile] | 48 nM | 12 nM
CC(C)(C)OC(=O)CCN1Cc2cc(Nc3nn([C@H]4CCCC[C@@H]4C#N)c4cc[nH]c(=O)c34)ccc2S1(=O)=O [Example 3-150, tert-butyl 3-[5-({1-[(1S,2S)-2-cyanocyclohexyl]-4-oxo-4,5-dihydro-1H-pyrazolo[4,3-c]pyridin-3-yl}amino)-1,1-dioxido-1,2-benzisothiazol-2(3H)-yl]propanoate] | 0.55 nM | 0.066 nM
CC(C)(C)NS(=O)(=O)c1ccc(Nc2nn([C@H]3CCCC[C@@H]3C#N)c3cc[nH]c(=O)c23)cc1 [Example 3-140, N-tert-butyl-4-({1-[(1S,2S)-2-cyanocyclohexyl]-4-oxo-4,5-dihydro-1H-pyrazolo[4,3-c]pyridin-3-yl}amino)benzenesulfonamide] | 0.43 nM | 0.17 nM
N#C[C@H]1CCCC[C@@H]1n1nc(Nc2cccc(CNCC(F)(F)F)c2)c2c(=O)[nH]ccc21 [Example 3-39, (1S,2S)-2-{4-oxo-3-[(3-{[(2,2,2-trifluoroethyl)amino]methyl}phenyl)amino]-4,5-dihydro-1H-pyrazolo[4,3-c]pyridin-1-yl}cyclohexanecarbonitrile] | 1.8 nM | 0.64 nM
N#C[C@H]1CCCC[C@@H]1n1nc(Nc2ccc3c(c2)CNC3C(F)F)c2c(=O)[nH]ccc21 (single isomer, unassigned) [Example 15-27, (1S,2S)-2-(3-{[(1R or 1S)-1-(difluoromethyl)-2,3-dihydro-1H-isoindol-5-yl]amino}-4-oxo-4,5-dihydro-1H-pyrazolo[4,3-c]pyridin-1-yl)cyclohexanecarbonitrile] | 0.72 nM | 0.22 nM
N#C[C@H]1CCCC[C@@H]1n1nc(Nc2ccc(Cl)cc2)c2c(=O)[nH]ccc21 [Example 3-91, (1S,2S)-2-(3-((4-chlorophenyl)amino)-4-oxo-4,5-dihydro-1H-pyrazolo[4,3-c]pyridin-1-yl)cyclohexanecarbonitrile] | 10.3 nM | 0.45 nM
CC(=O)N1Cc2ccc(Nc3nn([C@H]4CCCC[C@@H]4C#N)c4cc[nH]c(=O)c34)cc2C1 [Example 15-26, (1S,2S)-2-{3-[(2-acetyl-2,3-dihydro-1H-isoindol-5-yl)amino]-4-oxo-4,5-dihydro-1H-pyrazolo[4,3-c]pyridin-1-yl}cyclohexanecarbonitrile] | 0.92 nM | 0.23 nM
N#C[C@H]1C[C@@H](N2CCC2)CC[C@@H]1n1nc(Nc2ccc(OC(F)(F)F)cc2)c2c(=O)[nH]ccc21 [Example 5-24, (1S,2S,5S)-5-(azetidin-1-yl)-2-(4-oxo-3-((4-(trifluoromethoxy)phenyl)amino)-4,5-dihydro-1H-pyrazolo[4,3-c]pyridin-1-yl)cyclohexanecarbonitrile] | 31 nM | 0.88 nM
N#C[C@@H]1C[C@H](N2CCC2)CC[C@H]1n1nc(Nc2ccc(C(F)(F)F)cc2)c2c(=O)[nH]ccc21 [Example 5-10, (1R,2R,5R)-5-(azetidin-1-yl)-2-(4-oxo-3-((4-(trifluoromethyl)phenyl)amino)-4,5-dihydro-1H-pyrazolo[4,3-c]pyridin-1-yl)cyclohexanecarbonitrile] | 940 nM | 37 nM
CC(C)[C@H](C)N1Cc2ccc(Nc3nn([C@H]4CCCC[C@@H]4C#N)c4cc[nH]c(=O)c34)cc2C1 [Example 3-148, (1S,2S)-2-[3-({2-[(1S)-1,2-dimethylpropyl]-2,3-dihydro-1H-isoindol-5-yl}amino)-4-oxo-4,5-dihydro-1H-pyrazolo[4,3-c]pyridin-1-yl]cyclohexanecarbonitrile] | 0.43 nM | 0.31 nM
N#CCC1(n2nc(Nc3ccc(C(N)C(F)F)cc3)c3c(=O)[nH]ccc32)CCCCC1 (single isomer, unassigned) [Example 9-2, (R or S)-2-(1-(3-(4-(1-Amino(-2,2-difluoroethyl)phenylamino)-4-oxo-4,5-dihydro-1H-pyrazolo[4,3-c]pyridin-1-yl)cyclohexyl)acetonitrile] | 0.51 nM | 0.22 nM
CC(O)(CO)c1cccc(Nc2nn([C@H]3CCCC[C@@H]3C#N)c3cc[nH]c(=O)c23)c1 (stereo partly drawn) [Example 11-1, (1S,2S)-2-(3-((3-(1,2-Dihydroxypropan-2-yl)phenyl)amino)-4-oxo-4,5-dihydro-1H-pyrazolo[4,3-c]pyridin-1-yl)cyclohexanecarbonitrile] | 4 nM | 2.5 nM
N#C[C@@H]1C[C@@H](N2CCC2)CC[C@H]1n1nc(Nc2ccc(C(F)(F)F)cc2)c2c(=O)[nH]ccc21 [Example 5-9, (1R,2R,5S)-5-(azetidin-1-yl)-2-(4-oxo-3-((4-(trifluoromethyl)phenyl)amino)-4,5-dihydro-1H-pyrazolo[4,3-c]pyridin-1-yl)cyclohexanecarbonitrile] | 660 nM | 25 nM
N#C[C@H]1CCCC[C@@H]1n1nc(Nc2ccc3c(c2)CC2(CCCCC2)S3(=O)=O)c2c(=O)[nH]ccc21 [Example 21-2, (1S,2S)-2-(3-((1,1-Dioxido-3H-spiro[benzo[b]thiophene-2,1′-cyclohexan]-5-yl)amino)-4-oxo-4,5-dihydro-1H-pyrazolo[4,3-c]pyridin-1-yl)cyclohexanecarbonitrile] | 0.38 nM | 0.12 nM
Cc1cc(Nc2nn([C@H]3CCCC[C@@H]3C#N)c3cc[nH]c(=O)c23)ccc1C(C)(C)n1nccn1 [Example 15-32, (1S,2S)-2-[3-({3-methyl-4-[1-methyl-1-(2H-1,2,3-triazol-2-yl)ethyl]phenyl}amino)-4-oxo-4,5-dihydro-1H-pyrazolo[4,3-c]pyridin-1-yl]cyclohexanecarbonitrile] | 0.15 nM | 0.26 nM
CC(C)N1Cc2cc(Nc3nn([C@H]4CCCC[C@@H]4C#N)c4cc[nH]c(=O)c34)ccc2C1C (single isomer, unassigned) [Example 19-1, (1S,2S)-2-(3-(((S or R)-2-isopropyl-1-methylisoindolin-5-yl)amino)-4-oxo-4,5-dihydro-1H-pyrazolo[4,3-c]pyridin-1-yl)cyclohexanecarbonitrile] | 0.89 nM | 0.91 nM
N#C[C@@H]1CCCC[C@H]1n1nc(Nc2cccc(CNC(=O)c3ncccn3)c2)c2c(=O)[nH]ccc21 [Example 3-14, N-[3-({1-[(1R,2R)-2-cyanocyclohexyl]-4-oxo-4,5-dihydro-1H-pyrazolo[4,3-c]pyridin-3-yl}amino)benzyl]pyrimidine-2-carboxamide] | 68 nM | 38 nM
N#C[C@H]1CCCCC[C@@H]1n1nc(Nc2ccc3c(c2)CN(C2CCOCC2)S3(=O)=O)c2c(=O)[nH]ccc21 (single isomer, unassigned) [Example 15-54, (1S,2S or 1R,2R)-2-(3-{[1,1-dioxido-2-(tetrahydro-2H-pyran-4-yl)-2,3-dihydro-1,2-benzisothiazol-5-yl]amino}-4-oxo-4,5-dihydro-1H-pyrazolo[4,3-c]pyridin-1-yl)cycloheptanecarbonitrile] | 0.4 nM | 0.081 nM
N#C[C@H]1CCC[C@@H]1n1nc(Nc2ccc(C(N)C(F)(F)F)cc2)c2c(=O)[nH]ccc21 (single isomer, unassigned) [Example 3-137, (1S,2S)-2-[3-({4-[(1S or 1R)-1-amino-2,2,2-trifluoroethyl]phenyl}amino)-4-oxo-4,5-dihydro-1H-pyrazolo[4,3-c]pyridin-1-yl]cyclopentanecarbonitrile] | 0.59 nM | 0.22 nM
CC(C)(O)c1cn(Cc2ccc(Nc3nn([C@H]4CCCC[C@@H]4C#N)c4cc[nH]c(=O)c34)cc2)nn1 [Example 3-52, (1S,2S)-2-{3-[(4-{[4-(1-hydroxy-1-methylethyl)-1H-1,2,3-triazol-1-yl]methyl}phenyl)amino]-4-oxo-4,5-dihydro-1H-pyrazolo[4,3-c]pyridin-1-yl}cyclohexanecarbonitrile] | 0.41 nM | 0.16 nM
N#C[C@H]1CCCC[C@@H]1n1nc(Nc2ccc(Cn3ccnn3)cc2)c2c(=O)[nH]ccc21 [Example 3-46, (1S,2S)-2-(4-oxo-3-{[4-(1H-1,2,3-triazol-1-ylmethyl)phenyl]amino}-4,5-dihydro-1H-pyrazolo[4,3-c]pyridin-1-yl)cyclohexanecarbonitrile] | 0.34 nM | 0.095 nM
